From US20250346585A1 (Alexion Pharmaceuticals, Inc., priority 2022, published 2025)

target: Human complement C1s enzyme (Homo sapiens (Human), UniProt P09871); assay: Human C1s enzyme assay; type: biochemical; settings: Human C1s enzyme assay of Example 3; read-out: IC50 (Stars)
Outline: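 IC50 derived by nonlinear regression of rate versus concentration, with rate taken from A405 kinetics (30 s intervals, 30 min) after adding 100 μM each Z-L-Lys-SBzl and DTNB. C1s from human serum, 1.16 nM, exposed to compound for 5 min at RT beforehand; buffer 50 mM Tris, 1 M NaCl, pH 7.5.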

Chain of Human complement C1s enzyme (P09871 438-688 limits assumed): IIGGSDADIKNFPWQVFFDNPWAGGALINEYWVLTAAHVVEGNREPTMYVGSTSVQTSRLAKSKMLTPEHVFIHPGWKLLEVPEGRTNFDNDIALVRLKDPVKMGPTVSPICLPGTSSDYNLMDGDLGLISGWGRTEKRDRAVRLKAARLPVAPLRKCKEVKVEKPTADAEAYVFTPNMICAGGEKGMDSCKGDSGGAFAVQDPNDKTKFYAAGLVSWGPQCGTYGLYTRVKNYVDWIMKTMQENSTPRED
Chain of Human complement C1s enzyme (P09871 16-437 partner limits assumed): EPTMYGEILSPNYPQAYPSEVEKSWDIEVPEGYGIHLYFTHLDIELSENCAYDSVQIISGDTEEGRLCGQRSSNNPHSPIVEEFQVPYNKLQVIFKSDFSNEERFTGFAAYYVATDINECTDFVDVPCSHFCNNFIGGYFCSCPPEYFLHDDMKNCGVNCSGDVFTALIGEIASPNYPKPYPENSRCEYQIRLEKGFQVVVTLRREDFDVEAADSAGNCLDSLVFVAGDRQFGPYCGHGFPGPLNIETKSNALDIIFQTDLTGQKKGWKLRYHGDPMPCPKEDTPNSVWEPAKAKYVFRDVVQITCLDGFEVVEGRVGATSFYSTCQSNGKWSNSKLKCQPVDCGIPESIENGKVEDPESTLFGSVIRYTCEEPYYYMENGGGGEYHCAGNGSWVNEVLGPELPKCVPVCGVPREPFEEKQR

Row | SMILES | IC50
1 | C[C@@H](NC(=O)[C@@H]1CC2(CN1C(=O)CNC(=O)c1ccc3c(c1)-c1ccccc1C3(F)F)OCCO2)c1cc(C(=N)NO)cs1 [Compound 128, (S)-7-((9,9-difluoro-9H-fluorene-3-carbonyl)glycyl)-N—((R)-1-(4-(N-hydroxycarbamimidoyl)thiophen-2-yl)ethyl)-1,4-dioxa-7-azaspiro[4.4]nonane-8-carboxamide] | < 100 nM
2 | C[C@H]1C[C@@H](C(=O)N[C@H](C)c2cc(C(=N)N)cs2)N(C(=O)CNC(=O)c2ccc(Oc3ccc(F)cc3)cc2)C1 [Compound 45, (2S,4S)—N—((R)-1-(4-carbamimidoylthiophen-2-yl)ethyl)-1-((4-(4-fluorophenoxy)benzoyl)glycyl)-4-methylpyrrolidine-2-carboxamide] | < 100 nM
3 | C[C@@H](NC(=O)[C@@H]1CC2(CN1C(=O)CNC(=O)c1ccc3c(c1)-c1ccccc1C3(F)F)OCCO2)c1cc(/C(N)=N\C(=O)Oc2ccccc2)cs1 [Compound 149, phenyl ((E)-amino(5-((R)-1-((S)-7-((9,9-difluoro-9H-fluorene-3-carbonyl)glycyl)-1,4-dioxa-7-azaspiro[4.4]nonane-8-carboxamido)ethyl)thiophen-3-yl)methylene)carbamate] | < 100 nM
4 | Cn1ccc2cc(-c3ccc(C(=O)NCC(=O)N4CC5(C[C@H]4C(=O)NCc4cc(C(=N)N)cs4)OCCO5)cc3)ccc21 [Compound 104, (S)—N-((4-carbamimidoylthiophen-2-yl)methyl)-7-((4-(1-methyl-1H-indol-5-yl)benzoyl)glycyl)-1,4-dioxa-7-azaspiro[4.4]nonane-8-carboxamide] | < 100 nM
5 | N=C(N)c1csc(CNC(=O)[C@@H]2CC3(CN2C(=O)CNC(=O)c2ccc4c(c2)-c2ccccc2C4=O)OCCO3)c1 [Compound 88, (S)—N-((4-carbamimidoylthiophen-2-yl)methyl)-7-((9-oxo-9H-fluorene-3-carbonyl)glycyl)-1,4-dioxa-7-azaspiro[4.4]nonane-8-carboxamide] | < 100 nM
6 | CC(C)c1ccc(Oc2ccc(C(=O)NCC(=O)N3C[C@H](OC(F)F)C[C@H]3C(=O)N[C@H](C)c3cc(C(=N)N)cs3)cc2)cc1 [Compound 47, (2S,4R)—N—((R)-1-(4-carbamimidoylthiophen-2-yl)ethyl)-4-(difluoromethoxy)-1-((4-(4-isopropylphenoxy)benzoyl)glycyl)pyrrolidine-2-carboxamide] | < 100 nM
7 | C[C@@H](NC(=O)[C@@H]1CC2(CN1C(=O)CNC(=O)c1ccc(-c3ccc(Cl)cc3F)cc1)OCCO2)c1cc(C(=N)N)cs1 [Compound 174, (S)—N—((R)-1-(4-carbamimidoylthiophen-2-yl)ethyl)-7-((4′-chloro-2′-fluoro-[1,1′-biphenyl]-4-carbonyl)glycyl)-1,4-dioxa-7-azaspiro[4.4]nonane-8-carboxamide] | < 100 nM
8 | C[C@@H](NC(=O)[C@@H]1CC2(CN1C(=O)CNC(=O)c1ccc3c(c1)-c1ccccc1-3)OCCO2)c1cc(C(=N)N)cs1 [Compound 95, (S)-7-((biphenylene-2-carbonyl)glycyl)-N—((R)-1-(4-carbamimidoylthiophen-2-yl)ethyl)-1,4-dioxa-7-azaspiro[4.4]nonane-8-carboxamide] | < 100 nM
9 | C[C@@H](NC(=O)[C@@H]1CC2(CN1C(=O)CNC(=O)c1ccc(-c3ccc(F)cn3)cc1)OCCO2)c1cc(C(=N)N)cs1 [Compound 164, (S)—N—((R)-1-(4-carbamimidoylthiophen-2-yl)ethyl)-7-((4-(5-fluoropyridin-2-yl)benzoyl)glycyl)-1,4-dioxa-7-azaspiro[4.4]nonane-8-carboxamide] | < 100 nM
10 | C[C@@H](NC(=O)[C@@H]1C[C@](F)(COCCNC(=O)CC[C@H](NC(=O)CCCCCCCCCCCCCCCCC(=O)O)C(=O)O)CN1C(=O)CNC(=O)c1ccc(Oc2ccc(F)cc2)cc1)c1cc(C(=N)N)cs1 [Compound 106, 18-(((S)-4-((2-(((3R,5S)-5-(((R)-1-(4-carbamimidoylthiophen-2-yl)ethyl)carbamoyl)-3-fluoro-1-((4-(4-fluorophenoxy)benzoyl)glycyl)pyrrolidin-3-yl)methoxy)ethyl)amino)-1-carboxy-4-oxobutyl)amino)-18-oxooctadecanoic acid] | < 100 nM

same assay, conditions: Human complement C1s enzyme 1.16 nM, substrate Z-L-Lys-SBzl 100 μM, assay of Example 3; read-out: IC50 (Stars)

Row | SMILES | IC50
11 | COC[C@@]1(F)C[C@@H](C(=O)N[C@H](C)c2cc(C(=N)N)cs2)N(C(=O)CNC(=O)c2ccc3c(c2)Oc2ccccc2S3)C1 [Compound 373, (2S,4R)—N—((R)-1-(4-carbamimidoylthiophen-2-yl)ethyl)-4-fluoro-4-(methoxymethyl)-1-((phenoxathiine-3-carbonyl)glycyl)pyrrolidine-2-carboxamide] | < 100 nM
12 | C[C@@H](NC(=O)[C@@H]1CC2(CN1C(=O)CNC(=O)c1ccc(O)cc1)OCCO2)c1cc(C(=N)N)cs1 [Compound 272, (S)—N—((R)-1-(4-carbamimidoylthiophen-2-yl)ethyl)-7-((4-hydroxybenzoyl)glycyl)-1,4-dioxa-7-azaspiro[4.4]nonane-8-carboxamide] | < 100 nM
13 | N=C(N)c1csc(CNC(=O)[C@@H]2CC3(CN2C(=O)CNC(=O)c2ccc(-c4ccc(F)cc4F)o2)OCCO3)c1 [Compound 298, (S)—N-((4-carbamimidoylthiophen-2-yl)methyl)-7-((5-(2,4-difluorophenyl)furan-2-carbonyl)glycyl)-1,4-dioxa-7-azaspiro[4.4]nonane-8-carboxamide] | < 100 nM
14 | C[C@@H](NC(=O)[C@@H]1C[C@](F)(CF)CN1C(=O)CNC(=O)c1ccc2c(c1)sc1ccccc12)c1cc(C(=N)N)cs1 [Compound 349, (2S,4R)—N—((R)-1-(4-carbamimidoylthiophen-2-yl)ethyl)-1-((dibenzo[b,d]thiophene-3-carbonyl)glycyl)-4-fluoro-4-(fluoromethyl)pyrrolidine-2-carboxamide] | < 100 nM
15 | C[C@@H](NC(=O)[C@@H]1C[C@](F)(CF)CN1C(=O)CNC(=O)c1ccc2c(c1)-c1ccccc1S2(=O)=O)c1cc(C(=N)N)cs1 [Compound 336, (2S,4R)—N—((R)-1-(4-carbamimidoylthiophen-2-yl)ethyl)-1-((5,5-dioxidodibenzo[b,d]thiophene-2-carbonyl)glycyl)-4-fluoro-4-(fluoromethyl) pyrrolidine-2-carboxamide] | < 100 nM
16 | N=C(N)c1csc(CNC(=O)[C@@H]2CC3(CN2C(=O)CN2Cc4ccc(-c5ccc(F)cc5F)cc4C2=O)OCCO3)c1 [Compound 229, (S)—N-((4-carbamimidoylthiophen-2-yl)methyl)-7-(2-(6-(2,4-difluorophenyl)-1-oxoisoindolin-2-yl)acetyl)-1,4-dioxa-7-azaspiro[4.4]nonane-8-carboxamide] | < 100 nM
17 | N=C(N)c1csc(CNC(=O)[C@@H]2CC3(CN2C(=O)CNC(=O)c2ccc(-c4ccc(F)c(C(=O)O)c4)cc2)OCCO3)c1 [Compound 212, (S)-4′-((2-(8-(((4-carbamimidoylthiophen-2-yl)methyl)carbamoyl)-1,4-dioxa-7-azaspiro[4.4]nonan-7-yl)-2-oxoethyl)carbamoyl)-4-fluoro-[1,1′-biphenyl]-3-carboxylic acid] | < 100 nM
18 | C[C@H]1C[C@@H](C(=O)N[C@H](C)c2cc(C(=N)N)cs2)N(C(=O)CNC(=O)c2ccc3oc4ccccc4c3c2)C1 [Compound 226, (2S,4S)—N—((R)-1-(4-carbamimidoylthiophen-2-yl)ethyl)-1-((dibenzo[b,d]furan-2-carbonyl)glycyl)-4-methylpyrrolidine-2-carboxamide] | < 100 nM
